Values quoted from earlier work, collected in US8877698B2, “Method and composition for disinfecting hard surfaces” (priority 2001, dated 2014).

System: poliovirus

CCO [ethanol]
minimum concentration required to inactivate poliovirus: 70%
virucidal action against poliovirus: little virucidal action
